From patent US4812562A, “Cephalosporin derivatives” (Taisho Pharmaceutical Co., Ltd., priority 1985, dated 1989) come the findings set out here.

Data set [1] can be described thus: concentration of the compound in blood after oral administration to rats. The data set is classed as in vivo, Male wister rats. Conditions: rat, 50 mg/kg, bioassay (Escherichia coli SC507). As for the experimental part: Male wister rats (7 weeks old) were administered orally with the test compound, and the change of the concentration of the compound in blood was measured.
Dosage of the test compound: 50 mg/kg
Quantitative method: Bioassy
(test bacterium: Escherichia coli SC507)

In data set [2] the test system is Serratia marcescens IID 618. Put plainly: MIC by agar plate dilution method, Serratia marcescens IID 618. Format: cell-based. Conditions: IID618. As for the experimental part:
(§1) Subsequently, there were tested the minimal inhibitory concentration (MIC) of the compounds of the present invention against various bacteria and the concentration of the compound in blood after oral administration to rats, and the results are shown.
(§2) The antibacterial activities of the compound of the present invention against various bacteria (inoculum size: 10^6 cells/ml) were tested by the agar plate dilution method, and the results are shown in the following Table 1.

The test system of data set [3] is Escherichia coli NIHJ JC-2. Description: MIC by agar plate dilution method, Escherichia coli NIHJ JC-2. The data set is classed as cell-based. Conditions: NIHJJC2, inoculum size 10^6 cells/ml. Here is the method:
as §1, §2

Data set [4] deals with Staphylococcus aureus FDA 209P-JC. Description: MIC by agar plate dilution method, Staphylococcus aureus FDA 209P-JC. The data set is classed as cell-based. Conditions: FDA209P, inoculum size 10^6 cells/ml. Here is the method:
as §1, §2

Data set [5] relates to Klebsiella pneumoniae T 25. Description: MIC by agar plate dilution method, Klebsiella pneumoniae T 25. Format: cell-based. Conditions: T25, inoculum size 10^6 cells/ml. As for the experimental part:
as §1, §2

For the next data set, the system named is Bacillus cereus S 1101. Put plainly: MIC by agar plate dilution method, Bacillus cereus S 1101. Format: cell-based. Conditions: S1101. Here is the method:
as §1, §2

For data set [6], the system named is Morganella morganii IID 602. Description: MIC by agar plate dilution method, Morganella morganii IID 602. The data set is classed as cell-based. Conditions: IID602. As for the experimental part:
as §1, §2

Where [7] appears, read: Serratia marcescens IID 618, inoculum size 10^6 cells/ml, read-out: MIC.
Setting [8] is: Bacillus cereus S 1101, inoculum size 10^6 cells/ml, read-out: MIC.
Where [9] appears, read: Morganella morganii IID 602, inoculum size 10^6 cells/ml, read-out: MIC.

≈ marks a conversion by molar mass, not a printed value. Structures can show the parent of a compound that is named as a salt. Where two headings read alike, the source gives them in different places. A value given as a limit tells only on which side of the number the result lay.

A word on the MIC: it is the lowest concentration found to suppress growth. With `N#CCSC1=C(C(=O)O)N2C(=O)[C@@H](NC(=O)/C(=N\OCC(=O)O)c3csc(N)n3)[C@H]2SC1` [A], the concentration at 1 h in data set [1] came to 28700 ng/mL. This compound also returned a concentration at 2 h in data set [1] of 19500 ng/mL. This compound also registered a concentration at 4 h in data set [1] of 4300 ng/mL. Besides, the minimal inhibitory concentration (MIC) in data set [2] (setting [7]) is 0.78 µg/mL (≈ 1.56 µM); in data set [3] it was 1.56 µg/mL (≈ 3.13 µM); in data set [4] it was 6.25 µg/mL (≈ 12.5 µM); in data set [5] it was 25 µg/mL (≈ 50.1 µM); in the data set with Bacillus cereus S 1101 (setting [8]), 0.2 µg/mL (≈ 0.401 µM); in data set [6] (setting [9]), below 0.1 µg/mL.
With `Nc1nc(/C(=N/OCC(=O)O)C(=O)N[C@@H]2C(=O)N3C(C(=O)O)=C(SCCF)CS[C@H]23)cs1` [C], the concentration at 1 h in data set [1] was 25600 ng/mL. Besides, in data set [1], the concentration at 2 h came out at 9100 ng/mL. In data set [1], this compound yielded a concentration at 4 h of 4000 ng/mL. In addition, the MIC in data set [2] (setting [7]) was 1.56 µg/mL (≈ 3.09 µM); in data set [3], 1.56 µg/mL (≈ 3.09 µM); in data set [4], 6.25 µg/mL (≈ 12.4 µM); in data set [5] it was 25 µg/mL (≈ 49.5 µM); in the data set with Bacillus cereus S 1101 (setting [8]), 0.2 µg/mL (≈ 0.396 µM); in data set [6] (setting [9]), below 0.1 µg/mL.
On to `NC(=O)OCCSC1=C(C(=O)O)N2C(=O)[C@@H](NC(=O)/C(=N\OCC(=O)O)c3csc(N)n3)[C@H]2SC1` [G, 7β-{α-(2-aminothiazole-4-yl)-α-[(Z)-carboxymethoxyimino]acetamido}-3-(2-carbamoyloxy)ethylthio-3-cephem-4-carboxylic acid sodium salt], for which the MIC in data set [2] (setting [7]) was 0.78 µg/mL; in data set [3], 0.39 µg/mL; in data set [4], 12.5 µg/mL; in data set [5] it was 6.25 µg/mL; in the data set on Bacillus cereus S 1101 (setting [8]) it was 0.2 µg/mL; in data set [6] (setting [9]) it was at most 0.1 µg/mL.
For `NC(=O)CCSC1=C(C(=O)O)N2C(=O)[C@@H](NC(=O)/C(=N\OCC(=O)O)c3csc(N)n3)[C@H]2SC1` [F], the MIC in data set [2] (setting [7]) amounted to 0.78 µg/mL (≈ 1.47 µM); in data set [3] it was 1.56 µg/mL (≈ 2.94 µM); in data set [4], 12.5 µg/mL (≈ 23.6 µM); in data set [5], 12.5 µg/mL (≈ 23.6 µM); with Bacillus cereus S 1101 (setting [8]), 0.2 µg/mL (≈ 0.377 µM); in data set [6] (setting [9]), 0.1 µg/mL (≈ 0.188 µM).
`CSC1=C(C(=O)O)N2C(=O)[C@@H](NC(=O)/C(=N\OCC(=O)O)c3csc(N)n3)[C@H]2SC1` [XX, 7{(2-aminothiazole-4-yl)-[(Z)carboxy-methoxyimino]acetamido3-methylthio-3cephem-4-carboxylic acid sodium salt, reference compound]: the MIC in data set [2] (setting [7]) amounted to 1.56 µg/mL; in data set [3], 1.56 µg/mL; in data set [4], 50 µg/mL; in data set [5], 25 µg/mL; with Bacillus cereus S 1101 (setting [8]), 0.78 µg/mL; in data set [6] (setting [9]) it was 0.39 µg/mL.
Consider `CC1=C(C(=O)O)N2C(=O)[C@@H](NC(=O)[C@H](N)c3ccccc3)[C@H]2SC1` [YY, Cefalexin, reference compound], for which the minimum inhibitory concentration (MIC) is above 400 µg/mL in data set [2] (Serratia marcescens), 0.78 µg/mL (≈ 2.25 µM) in data set [4], at most 0.1 µg/mL with Bacillus cereus S 1101 (Bacillus cereus) and 200 µg/mL (≈ 576 µM) in data set [6] (Morganella morganii).
`NCCCSC1=C(C(=O)O)N2C(=O)[C@@H](NC(=O)/C(=N\OCC(=O)O)c3csc(N)n3)[C@H]2SC1` [D]: the concentration at 1 h in data set [1] is 11900 ng/mL. Further, in data set [1], the concentration at 2 h is 16600 ng/mL. In data set [1], this compound returned a concentration at 4 h of 15400 ng/mL. For the same compound, the minimal inhibitory concentration (MIC) in data set [2] (setting [7]) turned out to be 0.39 µg/mL (≈ 0.755 µM); in data set [3], 0.78 µg/mL (≈ 1.51 µM); in data set [4] it was 6.25 µg/mL (≈ 12.1 µM); in data set [5], 3.13 µg/mL (≈ 6.06 µM); in the data set with Bacillus cereus S 1101 (setting [8]), 0.2 µg/mL (≈ 0.387 µM); in data set [6] (setting [9]), 0.39 µg/mL (≈ 0.755 µM).
Take `COCCSC1=C(C(=O)O)N2C(=O)[C@@H](NC(=O)/C(=N\OCC(=O)O)c3csc(N)n3)[C@H]2SC1` [B]: the MIC in data set [2] (setting [7]) was 1.56 µg/mL (≈ 3.01 µM); in data set [3], 0.78 µg/mL (≈ 1.51 µM); in data set [4], 25 µg/mL (≈ 48.3 µM); in data set [5], 6.25 µg/mL (≈ 12.1 µM); in the data set with Bacillus cereus S 1101 (setting [8]), 0.39 µg/mL (≈ 0.754 µM); in data set [6] (setting [9]), at most 0.1 µg/mL.
With `Nc1nc(/C(=N/OCC(=O)O)C(=O)N[C@@H]2C(=O)N3C(C(=O)O)=C(SCc4ccccn4)CS[C@H]23)cs1` [E], the MIC in data set [2] (setting [7]) is 0.78 µg/mL (≈ 1.42 µM); in data set [3] it was 0.39 µg/mL (≈ 0.708 µM); in data set [4] it was 12.5 µg/mL (≈ 22.7 µM); in data set [5] it was 1.56 µg/mL (≈ 2.83 µM); in the data set with Bacillus cereus S 1101 (setting [8]) it was 0.39 µg/mL (≈ 0.708 µM); in data set [6] (setting [9]), at most 0.1 µg/mL.
